Read-outs that look alike come from different tables or passages of the source.
Legend:
hNPY2R = target: T1, hNPY2R (Homo sapiens, UniProt P49146); test: hNPY2R CreLuc assay in 0.5% and 100% plasma (HEK-293 CRE-luciferase reporter cells); assay type: cell-based; settings: HEK-293 reporter cells
T1 construct: expressed in transfected cells; host or cells: HEK-293 CRE-luciferase reporter cells
T1 sequence (P49146 1-381): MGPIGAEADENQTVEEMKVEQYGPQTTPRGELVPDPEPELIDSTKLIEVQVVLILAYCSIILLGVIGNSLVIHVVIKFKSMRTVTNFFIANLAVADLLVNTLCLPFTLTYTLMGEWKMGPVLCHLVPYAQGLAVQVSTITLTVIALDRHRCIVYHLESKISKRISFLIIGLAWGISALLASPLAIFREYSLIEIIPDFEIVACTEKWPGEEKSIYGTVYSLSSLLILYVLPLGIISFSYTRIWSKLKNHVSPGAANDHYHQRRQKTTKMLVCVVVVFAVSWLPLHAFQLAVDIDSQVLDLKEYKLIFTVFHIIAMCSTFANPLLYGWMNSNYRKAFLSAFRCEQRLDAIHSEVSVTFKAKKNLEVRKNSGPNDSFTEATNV

hGLP1R = target: T2, hGLP1R (Homo sapiens, UniProt P43220); test: hGLP1R CreLuc assay in 0.5% and 100% plasma (HEK-293 CRE-luciferase reporter cells); assay type: cell-based; settings: HEK-293 reporter cells
T2 construct: expressed in transfected cells; host or cells: HEK-293 CRE-luciferase reporter cells

[1] = Solubility in 0.1 M phosphate buffer at pH 7; assay type: physicochemical; settings: 0.1 M phosphate buffer at pH 7, 10 mg/mL final peptide concentration, shaking 2 hours at room temperature, peptides as TFA-salts; measured sample pH 6.5-7.0
hGIPR = target: T3, hGIPR (Homo sapiens, UniProt P48546); test: hGIPR CreLuc assay in 0.5% and 100% plasma (CHO CRE-luciferase reporter cells); assay type: cell-based; settings: 0.5% human plasma, read-out: hGIPR 0.5% hP
T3 construct: expressed in transfected cells; host or cells: CHO CRE-luciferase reporter cells
T3 sequence (P48546 22-466): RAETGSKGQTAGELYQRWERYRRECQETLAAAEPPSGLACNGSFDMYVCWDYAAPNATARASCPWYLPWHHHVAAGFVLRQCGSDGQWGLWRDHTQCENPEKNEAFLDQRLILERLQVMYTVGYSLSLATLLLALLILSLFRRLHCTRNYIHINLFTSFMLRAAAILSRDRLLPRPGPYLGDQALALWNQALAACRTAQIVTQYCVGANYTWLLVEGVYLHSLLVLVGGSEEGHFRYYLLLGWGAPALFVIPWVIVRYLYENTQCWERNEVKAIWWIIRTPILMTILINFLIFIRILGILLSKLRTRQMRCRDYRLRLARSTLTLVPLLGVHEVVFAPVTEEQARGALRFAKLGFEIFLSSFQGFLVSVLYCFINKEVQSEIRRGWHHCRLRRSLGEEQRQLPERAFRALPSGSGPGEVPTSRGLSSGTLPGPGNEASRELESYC

[2] = 0.5% human plasma, read-out: hNPY2R 0.5% hP
[3] = 0.5% human plasma, read-out: hGLP1R 0.5% hP
[4] = 100% human plasma, read-out: hNPY2R 100% hP

T2 sequence (P43220 24-463): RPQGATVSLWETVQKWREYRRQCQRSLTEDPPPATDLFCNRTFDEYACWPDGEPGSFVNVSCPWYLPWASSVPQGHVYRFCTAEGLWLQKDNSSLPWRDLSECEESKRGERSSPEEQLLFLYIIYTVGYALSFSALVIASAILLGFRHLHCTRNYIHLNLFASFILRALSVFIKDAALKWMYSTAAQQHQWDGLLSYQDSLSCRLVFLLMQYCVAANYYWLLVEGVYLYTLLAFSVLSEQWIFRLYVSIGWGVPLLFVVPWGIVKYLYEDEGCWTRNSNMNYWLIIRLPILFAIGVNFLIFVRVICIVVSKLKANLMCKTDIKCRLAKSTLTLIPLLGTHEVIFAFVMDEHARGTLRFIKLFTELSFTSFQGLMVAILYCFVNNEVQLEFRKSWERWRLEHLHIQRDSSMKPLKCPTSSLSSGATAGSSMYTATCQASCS

| EC50 (hNPY2R; [2]) [nM] | EC50 (hGLP1R; [3]) [nM] | solubility at 2 h [1] [µg/mL] | EC50 (hGIPR) [nM] | EC50 (hNPY2R; [4]) [nM] | EC50 (hGLP1R; 100% human plasma, read-out: hGLP1R 100% hP) [nM] | SMILES |
| --- | --- | --- | --- | --- | --- | --- |
| 40 | 0.1 | 8200 | 0.1 | – | – | CC[C@H](C)[C@H](NC(=O)[C@H](CC(C)C)NC(=O)[C@H](Cc1ccc(O)cc1)NC(=O)[C@H](CCCNC(=N)N)NC(=O)[C@@H](NC(=O)[C@H](Cc1ccccc1)NC(=O)[C@H](C)NC(=O)C(C)(C)NC(=O)[C@H](CCC(N)=O)NC(=O)[C@H](C)NC(=O)[C@H](CCC(N)=O)NC(=O)[C@H](CCCCN)NC(=O)[C@H](CC(=O)O)NC(=O)[C@H](CC(C)C)NC(=O)C(C)(C)NC(=O)[C@@H](NC(=O)[C@H](CO)NC(=O)[C@H](Cc1ccc(O)cc1)NC(=O)[C@H](CC(=O)O)NC(=O)[C@H](CO)NC(=O)[C@@H](NC(=O)[C@H](Cc1ccccc1)NC(=O)[C@@H](NC(=O)CNC(=O)[C@H](CCC(=O)O)NC(=O)C(C)(C)NC(=O)[C@@H](N)Cc1ccc(O)cc1)[C@@H](C)O)[C@@H](C)O)[C@@H](C)CC)C(C)C)C(=O)N[C@@H](CC(N)=O)C(=O)N[C@@H](CCCCNC(=O)[C@@H](N)CCCCNC(=O)CC[C@H](NC(=O)CC[C@H](NC(=O)CC[C@H](NC(=O)CC[C@H](NC(=O)CC[C@H](NC(=O)CC[C@H](NC(=O)CCCCCCCCCCCCCCCCC(=O)O)C(=O)O)C(=O)O)C(=O)O)C(=O)O)C(=O)O)C(=O)O)C(=O)NC(C)(C)C(=O)N[C@H](C(=O)N[C@@H](CCCNC(=N)N)C(=O)N[C@@H](CCC(N)=O)C(=O)N[C@@H](CCCNC(=N)N)C(=O)N[C@@H](Cc1ccc(O)cc1)C(N)=O)[C@@H](C)O [Compound 153, Y-Aib-E-G-T-F-T-S-D-Y-S-I-Aib-L-D-K-Q-A-Q-Aib-A-F-V-R-Y-L-I-N-K(1,3)-Aib-T-R-Q-R-Y-NH2.C18DA-gGlu-gGlu-gGlu-gGlu-gGlu-gGlu-eLys(1,2)] |
| – | 0.4 | 9700 | 0.2 | 131 | 0.6 | CC[C@H](C)[C@H](NC(=O)[C@H](CC(C)C)NC(=O)[C@H](Cc1c[nH]cn1)NC(=O)[C@H](CCCNC(=N)N)NC(=O)[C@@H](NC(=O)[C@H](Cc1ccccc1)NC(=O)[C@H](C)NC(=O)C(C)(C)NC(=O)[C@H](CCC(=O)O)NC(=O)[C@H](C)NC(=O)[C@H](CCC(N)=O)NC(=O)[C@H](CCCCN)NC(=O)[C@H](CCC(=O)O)NC(=O)[C@H](CC(C)C)NC(=O)[C@](C)(CC(C)C)NC(=O)[C@@H](NC(=O)[C@H](CO)NC(=O)[C@H](Cc1ccc(O)cc1)NC(=O)[C@H](CC(=O)O)NC(=O)[C@H](CO)NC(=O)[C@@H](NC(=O)[C@H](Cc1ccccc1)NC(=O)[C@@H](NC(=O)CNC(=O)[C@H](CCC(=O)O)NC(=O)C(C)(C)NC(=O)[C@@H](N)Cc1ccc(O)cc1)[C@@H](C)O)[C@@H](C)O)[C@@H](C)CC)C(C)C)C(=O)N[C@@H](CC(N)=O)C(=O)N[C@@H](CCCCNC(=O)[C@@H](N)CCCCNC(=O)CC[C@H](NC(=O)CC[C@H](NC(=O)CC[C@H](NC(=O)CC[C@H](NC(=O)CC[C@H](NC(=O)CC[C@H](NC(=O)CCCCCCCCCCCCCCCCCCC(=O)O)C(=O)O)C(=O)O)C(=O)O)C(=O)O)C(=O)O)C(=O)O)C(=O)NC(C)(C)C(=O)N[C@H](C(=O)N[C@@H](CCCNC(=N)N)C(=O)N[C@@H](CCC(N)=O)C(=O)N[C@@H](CCCNC(=N)N)C(=O)N[C@@H](Cc1ccc(O)cc1)C(N)=O)[C@@H](C)O [Compound 103, Y-Aib-E-G-T-F-T-S-D-Y-S-I-aMeL-L-E-K-Q-A-E-Aib-A-F-V-R-H-L-I-N-K(1,3)-Aib-T-R-Q-R-Y-NH2.C20DA-gGlu-gGlu-gGlu-gGlu-gGlu-gGlu-eLys(1,2)] |
| – | 0.2 | 9100 | 0.2 | 119 | – | CC[C@H](C)[C@H](NC(=O)[C@H](CC(C)C)NC(=O)[C@H](Cc1c[nH]cn1)NC(=O)[C@H](CCCNC(=N)N)NC(=O)[C@@H](NC(=O)[C@H](Cc1ccccc1)NC(=O)[C@H](C)NC(=O)C(C)(C)NC(=O)[C@H](CCC(N)=O)NC(=O)[C@H](C)NC(=O)[C@H](CCC(N)=O)NC(=O)[C@H](CCC(N)=O)NC(=O)[C@H](CC(=O)O)NC(=O)[C@H](CC(C)C)NC(=O)C(C)(C)NC(=O)[C@@H](NC(=O)[C@H](CO)NC(=O)[C@H](Cc1ccc(O)cc1)NC(=O)[C@H](CC(=O)O)NC(=O)[C@H](CO)NC(=O)[C@@H](NC(=O)[C@H](Cc1ccccc1)NC(=O)[C@@H](NC(=O)CNC(=O)[C@H](CCC(=O)O)NC(=O)C(C)(C)NC(=O)[C@@H](N)Cc1ccc(O)cc1)[C@@H](C)O)[C@@H](C)O)[C@@H](C)CC)C(C)C)C(=O)N[C@@H](CC(N)=O)C(=O)N[C@@H](CCCCNC(=O)[C@@H](N)CCCCNC(=O)CC[C@H](NC(=O)CC[C@H](NC(=O)CC[C@H](NC(=O)CC[C@H](NC(=O)CC[C@H](NC(=O)CCCCCCCCCCCCCCCCC(=O)O)C(=O)O)C(=O)O)C(=O)O)C(=O)O)C(=O)O)C(=O)NC(C)(C)C(=O)N[C@H](C(=O)N[C@@H](CCCNC(=N)N)C(=O)N[C@@H](CCC(N)=O)C(=O)N[C@@H](CCCNC(=N)N)C(=O)N[C@@H](Cc1ccc(O)cc1)C(N)=O)[C@@H](C)O [Compound 70, Y-Aib-E-G-T-F-T-S-D-Y-S-I-Aib-L-D-Q-Q-A-Q-Aib-A-F-V-R-H-L-I-N-K(1,3)-Aib-T-R-Q-R-Y-NH2.C18DA-gGlu-gGlu-gGlu-gGlu-gGlu-eLys(1,2)] |
| – | 3.8 | 4700 | 0.6 | 135 | – | CC[C@H](C)[C@H](NC(=O)[C@H](CC(C)C)NC(=O)[C@H](Cc1c[nH]cn1)NC(=O)[C@H](CCCNC(=N)N)NC(=O)[C@@H](NC(=O)[C@H](Cc1ccccc1)NC(=O)[C@H](C)NC(=O)C(C)(C)NC(=O)[C@H](CCC(N)=O)NC(=O)[C@H](C)NC(=O)[C@H](CCC(N)=O)NC(=O)[C@H](CCCCN)NC(=O)[C@H](CCC(=O)O)NC(=O)[C@H](CC(C)C)NC(=O)C(C)(C)NC(=O)[C@@H](NC(=O)[C@H](CO)NC(=O)[C@H](Cc1ccc(O)cc1)NC(=O)[C@H](CC(=O)O)NC(=O)[C@H](CO)NC(=O)[C@@H](NC(=O)[C@H](Cc1ccccc1)NC(=O)[C@@H](NC(=O)CNC(=O)[C@H](CCC(=O)O)NC(=O)C(C)(C)NC(=O)[C@@H](N)Cc1ccc(O)cc1)[C@@H](C)O)[C@@H](C)O)[C@@H](C)CC)C(C)C)C(=O)N[C@@H](CC(N)=O)C(=O)N[C@@H](CCCCNC(=O)[C@@H](N)CCCNC(=O)CC[C@H](NC(=O)CC[C@H](NC(=O)CC[C@H](NC(=O)CC[C@H](NC(=O)CC[C@H](NC(=O)CC[C@H](NC(=O)CCCCCCCCCCCCCCCCCCC(=O)O)C(=O)O)C(=O)O)C(=O)O)C(=O)O)C(=O)O)C(=O)O)C(=O)NC(C)(C)C(=O)N[C@H](C(=O)N[C@@H](CCCNC(=N)N)C(=O)N[C@@H](CCC(N)=O)C(=O)N[C@@H](CCCNC(=N)N)C(=O)N[C@@H](Cc1ccc(O)cc1)C(N)=O)[C@@H](C)O [Compound 97, Y-Aib-E-G-T-F-T-S-D-Y-S-I-Aib-L-E-K-Q-A-Q-Aib-A-F-V-R-H-L-I-N-K(1,3)-Aib-T-R-Q-R-Y-NH2.C20DA-gGlu-gGlu-gGlu-gGlu-gGlu-gGlu-dtOrn(1,2)] |
| 19.9 | 0.8 | 10000 | 0.3 | – | – | CC[C@H](C)[C@H](NC(=O)[C@H](CC(C)C)NC(=O)[C@H](Cc1c[nH]cn1)NC(=O)[C@H](CCCNC(=N)N)NC(=O)[C@@H](NC(=O)[C@H](Cc1ccccc1)NC(=O)[C@H](C)NC(=O)C(C)(C)NC(=O)[C@H](CCC(N)=O)NC(=O)[C@H](C)NC(=O)[C@H](CCC(N)=O)NC(=O)[C@H](CCCCN)NC(=O)[C@H](CCC(=O)O)NC(=O)[C@H](CC(C)C)NC(=O)C(C)(C)NC(=O)[C@@H](NC(=O)[C@H](CO)NC(=O)[C@H](Cc1ccc(O)cc1)NC(=O)[C@H](CC(=O)O)NC(=O)[C@H](CO)NC(=O)[C@@H](NC(=O)[C@H](Cc1ccccc1)NC(=O)[C@@H](NC(=O)CNC(=O)[C@H](CCC(=O)O)NC(=O)C(C)(C)NC(=O)[C@@H](N)Cc1ccc(O)cc1)[C@@H](C)O)[C@@H](C)O)[C@@H](C)CC)C(C)C)C(=O)N[C@@H](CC(N)=O)C(=O)N[C@@H](CCCCNC(=O)COCCOCCNC(=O)CC[C@H](NC(=O)CC[C@H](NC(=O)CC[C@H](NC(=O)CC[C@H](NC(=O)CC[C@H](NC(=O)CC[C@H](NC(=O)CCCCCCCCCCCCCCCCC(=O)O)C(=O)O)C(=O)O)C(=O)O)C(=O)O)C(=O)O)C(=O)O)C(=O)NC(C)(C)C(=O)N[C@H](C(=O)N[C@@H](CCCNC(=N)N)C(=O)N[C@@H](CCC(N)=O)C(=O)N[C@@H](CCCNC(=N)N)C(=O)N[C@@H](Cc1ccc(O)cc1)C(N)=O)[C@@H](C)O [Compound 47, Y-Aib-E-G-T-F-T-S-D-Y-S-I-Aib-L-E-K-Q-A-Q-Aib-A-F-V-R-H-L-I-N-K(1,3)-Aib-T-R-Q-R-Y-NH2.C18DA-gGlu-gGlu-gGlu-gGlu-gGlu-gGlu-OEG(1,2)] |

— patent US20250382344A1, “Soluble GLP1/GIP/NPY2 Receptor Triple Agonists” (Boehringer Ingelheim International GmH, priority 2024, published 2025)
